Results: article PMC5933782, “Molecular structures of cdc2-like kinases in complex with a new inhibitor chemotype” (PLoS ONE, 2018)
pIC50: −log10 of the molar value. Where a name gives a salt, the structure may show the parent alone. Read-outs that look alike come from different tables or passages of the source.

Experiments:
CDK1/cyclin B = experiment: radiometric protein kinase assay; format: biochemical, starfish; conditions: 15 μmol/L ATP
CDK2/cyclin A = biological target: T1, CDK2/cyclin A (Homo sapiens, UniProt P24941); experiment: radiometric protein kinase assay; format: biochemical; conditions: 15 μmol/L ATP; read-out: IC50 CDK2/cyclinA
T1 construct: made in house

CDK5/p25 = biological target: T2, CDK5/p25 (Homo sapiens, UniProt Q00535); experiment: radiometric protein kinase assay; format: biochemical; conditions: 15 μmol/L ATP
T2 construct: made in house

CK1δ/ε = experiment: radiometric protein kinase assay; format: biochemical, porcine; conditions: 15 μmol/L ATP; read-out: IC50 CK1
DYRK1A [1] = biological target: DYRK1A (Homo sapiens, UniProt Q13627); experiment: radiometric protein kinase assay; format: biochemical; conditions: 15 μmol/L ATP; read-out: IC50 DYRK 1A
GSK-3 = experiment: radiometric protein kinase assay; format: biochemical, porcine; conditions: 15 μmol/L ATP; read-out: IC50 GSK3
CDK9/cyclin T = CDK9/cyclin T (Homo sapiens, UniProt P50750); experiment: radiometric protein kinase assay
CLK1 [2] = biological target: CLK1 (Mus musculus, UniProt P22518); experiment: radiometric protein kinase assay
DYRK1A [3] = test system: DYRK1A; parameters: method as in PMID 28555643; conditions: 1 μM; cited from earlier work
CLK1 [4] = test system: CLK1; parameters: method as in PMID 28555643; conditions: 1 μM; cited from earlier work
DYRK1B = DYRK1B (Homo sapiens, UniProt Q9Y463); experiment: radiometric protein kinase assay; format: biochemical; conditions: 15 μmol/L ATP; read-out: IC50 DYRK 1B
DYRK2 = biological target: T3, DYRK2 (Homo sapiens, UniProt Q92630); experiment: radiometric protein kinase assay; format: biochemical; conditions: 15 μmol/L ATP; read-out: IC50 DYRK 2
T3 sequence (Q92630 1-601): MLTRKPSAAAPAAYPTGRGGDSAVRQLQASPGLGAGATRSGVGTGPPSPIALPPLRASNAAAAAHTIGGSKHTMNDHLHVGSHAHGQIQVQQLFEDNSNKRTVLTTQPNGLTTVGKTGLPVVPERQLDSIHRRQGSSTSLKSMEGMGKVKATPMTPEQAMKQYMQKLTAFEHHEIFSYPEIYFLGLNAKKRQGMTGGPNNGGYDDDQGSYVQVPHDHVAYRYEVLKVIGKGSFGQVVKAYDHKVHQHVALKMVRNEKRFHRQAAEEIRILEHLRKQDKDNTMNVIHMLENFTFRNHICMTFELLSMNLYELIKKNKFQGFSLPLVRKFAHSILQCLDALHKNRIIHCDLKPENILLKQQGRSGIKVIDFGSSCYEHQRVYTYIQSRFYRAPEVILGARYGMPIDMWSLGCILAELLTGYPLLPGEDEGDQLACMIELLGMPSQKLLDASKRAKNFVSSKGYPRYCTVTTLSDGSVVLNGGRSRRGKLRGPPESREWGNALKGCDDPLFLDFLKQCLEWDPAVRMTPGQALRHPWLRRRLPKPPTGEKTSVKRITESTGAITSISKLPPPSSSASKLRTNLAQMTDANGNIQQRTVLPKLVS

DYRK3 = biological target: T4, DYRK3 (Homo sapiens, UniProt O43781); experiment: radiometric protein kinase assay; format: biochemical; conditions: 15 μmol/L ATP; read-out: IC50 DYRK 3
T4 sequence (O43781 1-588): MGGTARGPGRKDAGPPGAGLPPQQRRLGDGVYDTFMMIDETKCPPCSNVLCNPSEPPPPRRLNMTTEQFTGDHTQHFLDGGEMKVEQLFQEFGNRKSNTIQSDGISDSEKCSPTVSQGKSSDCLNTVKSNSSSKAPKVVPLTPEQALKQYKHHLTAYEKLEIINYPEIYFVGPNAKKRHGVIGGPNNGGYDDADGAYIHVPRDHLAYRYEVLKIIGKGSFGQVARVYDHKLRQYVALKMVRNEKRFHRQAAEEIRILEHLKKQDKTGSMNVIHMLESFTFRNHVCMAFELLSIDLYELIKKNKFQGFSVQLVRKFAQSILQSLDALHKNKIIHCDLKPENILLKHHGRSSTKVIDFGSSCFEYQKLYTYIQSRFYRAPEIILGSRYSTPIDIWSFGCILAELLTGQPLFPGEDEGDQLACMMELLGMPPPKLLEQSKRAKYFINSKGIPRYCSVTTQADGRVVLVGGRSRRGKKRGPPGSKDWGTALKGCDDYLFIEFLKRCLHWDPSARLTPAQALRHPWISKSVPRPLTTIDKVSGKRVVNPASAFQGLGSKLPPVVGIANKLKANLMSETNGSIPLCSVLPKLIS

CLK2 = CLK2 (Mus musculus, UniProt O35491); experiment: radiometric protein kinase assay
Method: (§1) Buffers. Buffer A: 10 mM MgCl2, 1 mM EGTA, 1 mM DTT, 25 mM Tris-HCl pH 7.5, 50 μg heparin/mL. Buffer C: 60 mM β-glycerophosphate, 15 mM p-nitrophenylphosphate, 25 mM MOPS (pH 7.2), 15 mM EGTA, 15 mM MgCl2, 1 mM DTT, 1 mM sodium vanadate, 1 mM phenylphosphate.
(§2) Kinase activities were assayed in buffer A or C at 30°C at a final ATP concentration of 15 μmol/L. Blank values were subtracted and activities were expressed in percent of the maximal activity, i.e. in the absence of inhibitors. Controls were performed with appropriate dilutions of DMSO.
(§3) Their kinase activity was assayed in buffer A, with 1 mg histone H1/mL, in the presence of 15 μmol/L [γ-33P] ATP (3,000 Ci/mmol; 10 mCi/mL) in a final volume of 30 μL. After 30 min incubation at 30°C, the reaction was stopped by harvesting onto P81 phosphocellulose supernatant (Whatman) using a FilterMate harvester (Packard) and washing in 1% phosphoric acid. Scintillation fluid was added and the radioactivity measured in a Packard counter.
(§4) All data points for construction of dose response curves were recorded in triplicate.

CLK3 = CLK3 (Mus musculus, UniProt O35492); experiment: radiometric protein kinase assay
Method: as §1, §2, §3, §4

CLK4 = CLK4 (Mus musculus, UniProt O35493); experiment: radiometric protein kinase assay
Method: as §1, §2, §3, §4

CLK1 [5] = test system: CLK1; parameters: method as in PMID 21450467; conditions: cited from earlier work
DYRK1A [6] = test system: DYRK1A; parameters: method as in PMID 21450467; conditions: cited from earlier work
CLK1 [7] = conditions: cited from earlier work
DYRK1A [8] = conditions: cited from earlier work
HCT116 = conditions: colorectal cancer cell line; cited from earlier work
CLK1 [9] = test system: CLK1; parameters: method as in PMID 28561591; conditions: cited from earlier work
DYRK1A [10] = test system: DYRK1A; parameters: method as in PMID 28561591; conditions: cited from earlier work

DYRK1B, sequence (Q9Y463 whole entry): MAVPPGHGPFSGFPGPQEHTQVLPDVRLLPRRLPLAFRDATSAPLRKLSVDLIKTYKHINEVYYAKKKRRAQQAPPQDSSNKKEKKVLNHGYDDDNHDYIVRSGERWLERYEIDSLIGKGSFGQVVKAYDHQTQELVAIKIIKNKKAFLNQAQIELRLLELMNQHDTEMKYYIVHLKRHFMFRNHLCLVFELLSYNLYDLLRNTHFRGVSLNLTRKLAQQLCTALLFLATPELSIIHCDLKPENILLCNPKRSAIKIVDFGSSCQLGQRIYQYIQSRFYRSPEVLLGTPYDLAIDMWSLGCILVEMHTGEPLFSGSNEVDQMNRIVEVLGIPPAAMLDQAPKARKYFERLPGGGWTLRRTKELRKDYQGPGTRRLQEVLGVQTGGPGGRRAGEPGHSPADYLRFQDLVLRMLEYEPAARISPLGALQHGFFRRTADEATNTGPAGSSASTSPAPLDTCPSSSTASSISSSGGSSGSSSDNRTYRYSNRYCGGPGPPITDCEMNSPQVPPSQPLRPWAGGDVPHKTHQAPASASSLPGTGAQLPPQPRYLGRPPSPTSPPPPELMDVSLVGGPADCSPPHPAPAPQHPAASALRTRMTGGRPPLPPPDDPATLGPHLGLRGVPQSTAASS
CLK4, sequence (O35493 whole entry): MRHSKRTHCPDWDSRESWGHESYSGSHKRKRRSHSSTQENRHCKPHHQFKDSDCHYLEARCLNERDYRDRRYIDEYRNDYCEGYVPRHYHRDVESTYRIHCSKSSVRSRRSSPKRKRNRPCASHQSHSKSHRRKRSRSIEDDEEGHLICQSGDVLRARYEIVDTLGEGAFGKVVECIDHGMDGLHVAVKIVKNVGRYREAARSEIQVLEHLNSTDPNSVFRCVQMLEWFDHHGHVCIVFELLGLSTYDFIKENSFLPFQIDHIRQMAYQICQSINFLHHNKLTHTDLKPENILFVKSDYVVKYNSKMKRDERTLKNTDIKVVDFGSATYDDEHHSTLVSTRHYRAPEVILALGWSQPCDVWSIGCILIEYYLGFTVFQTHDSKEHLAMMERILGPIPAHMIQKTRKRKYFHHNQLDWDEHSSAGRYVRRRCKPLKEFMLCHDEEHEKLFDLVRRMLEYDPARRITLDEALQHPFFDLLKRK
CLK1 (Mus musculus, UniProt P22518), sequence (P22518 whole entry): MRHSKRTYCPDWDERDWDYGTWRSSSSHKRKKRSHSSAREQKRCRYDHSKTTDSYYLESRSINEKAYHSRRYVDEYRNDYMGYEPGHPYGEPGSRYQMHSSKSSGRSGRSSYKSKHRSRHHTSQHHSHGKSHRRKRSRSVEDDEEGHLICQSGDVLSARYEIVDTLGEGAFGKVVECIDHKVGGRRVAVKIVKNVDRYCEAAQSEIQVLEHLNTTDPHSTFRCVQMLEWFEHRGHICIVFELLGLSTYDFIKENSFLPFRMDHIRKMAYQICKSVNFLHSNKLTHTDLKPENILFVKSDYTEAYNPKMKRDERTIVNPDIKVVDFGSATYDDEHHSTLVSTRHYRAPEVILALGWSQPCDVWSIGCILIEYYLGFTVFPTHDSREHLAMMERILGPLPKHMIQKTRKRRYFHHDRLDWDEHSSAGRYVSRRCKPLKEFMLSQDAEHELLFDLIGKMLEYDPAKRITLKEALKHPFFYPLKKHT
CDK9/cyclin T, sequence (P50750 whole entry): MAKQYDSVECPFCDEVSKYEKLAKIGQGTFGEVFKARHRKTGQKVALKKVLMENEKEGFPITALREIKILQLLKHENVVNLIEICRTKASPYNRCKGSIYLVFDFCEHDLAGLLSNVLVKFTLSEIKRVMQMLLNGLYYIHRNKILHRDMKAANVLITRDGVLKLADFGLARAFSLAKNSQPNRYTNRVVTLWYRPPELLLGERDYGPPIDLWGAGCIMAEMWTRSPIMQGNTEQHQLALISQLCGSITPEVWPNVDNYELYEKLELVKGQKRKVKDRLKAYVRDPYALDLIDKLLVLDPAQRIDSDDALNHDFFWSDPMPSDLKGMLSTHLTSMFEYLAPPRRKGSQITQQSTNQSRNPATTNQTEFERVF
CDK9/cyclin T, sequence (O60563 whole entry partner): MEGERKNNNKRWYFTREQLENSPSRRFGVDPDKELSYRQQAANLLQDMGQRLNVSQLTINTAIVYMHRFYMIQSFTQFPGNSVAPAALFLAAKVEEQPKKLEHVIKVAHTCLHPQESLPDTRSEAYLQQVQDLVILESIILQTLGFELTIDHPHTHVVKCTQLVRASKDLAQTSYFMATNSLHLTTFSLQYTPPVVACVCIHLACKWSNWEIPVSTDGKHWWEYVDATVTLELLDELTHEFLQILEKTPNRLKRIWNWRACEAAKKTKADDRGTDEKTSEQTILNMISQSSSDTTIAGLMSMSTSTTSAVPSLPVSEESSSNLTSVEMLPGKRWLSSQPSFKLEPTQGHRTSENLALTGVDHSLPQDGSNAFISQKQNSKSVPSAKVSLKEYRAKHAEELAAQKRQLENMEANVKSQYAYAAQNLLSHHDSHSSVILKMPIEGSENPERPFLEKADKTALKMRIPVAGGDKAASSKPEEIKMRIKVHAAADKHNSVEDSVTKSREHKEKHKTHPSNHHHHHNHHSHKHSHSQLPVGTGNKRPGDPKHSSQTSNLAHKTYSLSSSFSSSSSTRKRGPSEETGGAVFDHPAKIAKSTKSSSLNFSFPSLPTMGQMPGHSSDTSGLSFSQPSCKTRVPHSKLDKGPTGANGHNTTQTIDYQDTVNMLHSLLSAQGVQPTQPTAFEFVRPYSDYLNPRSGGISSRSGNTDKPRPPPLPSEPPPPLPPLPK
CLK2, sequence (O35491 whole entry): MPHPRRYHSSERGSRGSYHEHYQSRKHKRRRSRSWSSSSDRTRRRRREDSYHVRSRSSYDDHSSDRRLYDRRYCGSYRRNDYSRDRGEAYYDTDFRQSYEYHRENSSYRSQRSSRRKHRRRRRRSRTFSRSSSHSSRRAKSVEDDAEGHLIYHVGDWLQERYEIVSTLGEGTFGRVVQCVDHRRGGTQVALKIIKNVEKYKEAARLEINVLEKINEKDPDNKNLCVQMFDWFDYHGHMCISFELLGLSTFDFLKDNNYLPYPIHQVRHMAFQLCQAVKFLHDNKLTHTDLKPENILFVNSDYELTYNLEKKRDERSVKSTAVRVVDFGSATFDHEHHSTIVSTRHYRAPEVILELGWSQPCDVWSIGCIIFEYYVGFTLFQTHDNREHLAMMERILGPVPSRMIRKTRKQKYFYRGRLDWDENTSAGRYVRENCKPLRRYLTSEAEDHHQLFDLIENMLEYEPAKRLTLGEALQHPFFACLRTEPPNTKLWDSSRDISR
T2 sequence (Q00535 whole entry): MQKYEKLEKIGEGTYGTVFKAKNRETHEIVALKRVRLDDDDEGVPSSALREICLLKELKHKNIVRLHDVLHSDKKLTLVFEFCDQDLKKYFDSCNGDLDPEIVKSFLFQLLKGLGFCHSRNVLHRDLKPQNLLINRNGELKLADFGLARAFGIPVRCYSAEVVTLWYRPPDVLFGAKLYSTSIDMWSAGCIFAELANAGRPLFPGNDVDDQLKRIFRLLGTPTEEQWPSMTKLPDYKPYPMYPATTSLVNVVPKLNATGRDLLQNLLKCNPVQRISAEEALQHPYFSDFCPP
T2 sequence (Q15078 99-307 partner limits assumed): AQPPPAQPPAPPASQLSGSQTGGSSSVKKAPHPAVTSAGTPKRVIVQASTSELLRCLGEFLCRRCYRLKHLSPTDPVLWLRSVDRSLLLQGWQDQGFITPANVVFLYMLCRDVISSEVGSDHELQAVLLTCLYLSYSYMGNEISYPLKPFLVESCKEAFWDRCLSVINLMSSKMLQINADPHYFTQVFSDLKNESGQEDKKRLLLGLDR
CLK3, sequence (O35492 whole entry): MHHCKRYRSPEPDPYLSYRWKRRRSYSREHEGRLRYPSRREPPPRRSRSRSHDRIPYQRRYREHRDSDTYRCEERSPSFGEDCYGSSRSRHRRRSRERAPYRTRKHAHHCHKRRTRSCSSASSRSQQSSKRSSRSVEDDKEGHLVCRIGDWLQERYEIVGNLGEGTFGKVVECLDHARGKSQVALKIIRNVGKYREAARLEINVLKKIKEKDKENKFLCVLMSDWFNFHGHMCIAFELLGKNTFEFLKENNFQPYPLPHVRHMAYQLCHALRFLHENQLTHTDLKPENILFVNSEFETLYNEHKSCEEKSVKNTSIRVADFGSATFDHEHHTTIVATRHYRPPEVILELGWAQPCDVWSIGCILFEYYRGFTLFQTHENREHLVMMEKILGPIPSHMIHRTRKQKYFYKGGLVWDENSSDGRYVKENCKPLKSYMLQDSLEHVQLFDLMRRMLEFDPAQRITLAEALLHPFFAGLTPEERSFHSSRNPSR

CCOC(=O)Cn1cc(-c2ccccc2)c2ccc3c(c21)C(=O)NC3 [15d, Ethyl 2-(8-oxo-3-phenyl-7,8-dihydropyrrolo[3,4-g]indol-1(6H)-yl)acetate]
pIC50 (CDK1/cyclin B): < 5.00 | pIC50 (CDK2/cyclin A): < 5.00 | pIC50 (CDK5/p25): < 5.00 | pIC50 (CK1δ/ε): < 5.00 | pIC50 (DYRK1A [1]): < 5.00 | pIC50 (GSK-3): < 5.00 | melting point: 226 to 227 °C | pIC50 (CDK9/cyclin T): < 5.00 | pIC50 (CLK1 [2]): < 5.00

c1cc(-c2ccc3[nH]ncc3c2)ccn1 [TG693]
inhibition of DYRK1A activity (DYRK1A [3]): 84% | inhibition of CLK1 activity (CLK1 [4]): 93%

COc1cccc(-c2c[nH]c3c4c(ccc23)CNC4=O)c1 [8f, 3-(3-Methoxyphenyl)-6,7-dihydropyrrolo[3,4-g]indol-8(1H)-one]
pIC50 (CDK1/cyclin B): < 5.00 | pIC50 (CDK2/cyclin A): < 5.00 | pIC50 (CDK5/p25): < 5.00 | pIC50 (CK1δ/ε): < 5.00 | pIC50 (DYRK1A [1]): 5.42 | pIC50 (DYRK1B): 5.72 | pIC50 (DYRK2): 5.68 | pIC50 (DYRK3): 5.27 | pIC50 (GSK-3): < 5.00 | melting point: 207 to 208 °C | pIC50 (CDK9/cyclin T): < 5.00 | pIC50 (CLK1 [2]): 6.96 | pIC50 (CLK2): 6.49 | pIC50 (CLK3): 5.55 | pIC50 (CLK4): 6.96

CCn1cc(-c2ccccc2)c2ccc3c(c21)C(=O)NC3 [15b, 1-Ethyl-3-phenyl-6,7-dihydropyrrolo[3,4-g]indol-8(1H)-one]
pIC50 (CDK1/cyclin B): < 5.00 | pIC50 (CDK2/cyclin A): < 5.00 | pIC50 (CDK5/p25): < 5.00 | pIC50 (CK1δ/ε): < 5.00 | pIC50 (DYRK1A [1]): 5.41 | pIC50 (GSK-3): < 5.00 | melting point: 198 to 200 °C | pIC50 (CDK9/cyclin T): < 5.00 | pIC50 (CLK1 [2]): 6.42

Cc1cccc(-c2c[nH]c3c4c(ccc23)CNC4=O)c1 (as salt: sodium) [8i, 3-(3-Methylphenyl)-6,7-dihydropyrrolo[3,4-g]indol-8(1H)-one]
melting point: 231 to 232 °C

Cc1[nH]c2c3c(ccc2c1-c1ccccc1)CNC3=O (as salt: sodium) [8k, 2-Methyl-3-phenyl-6,7-dihydropyrrolo[3,4-g]indol-8(1H)-one]
melting point: 245 to 247 °C

O=C1NCc2c(-c3ccccc3F)cc3c(-c4ccccc4)c[nH]c3c21 [17b, 5-(2-Fluorophenyl)-3-phenyl-6,7-dihydropyrrolo[3,4-g]indol-8(1H)-one]
pIC50 (CDK1/cyclin B): < 5.00 | pIC50 (CDK2/cyclin A): < 5.00 | pIC50 (CDK5/p25): < 5.00 | pIC50 (CK1δ/ε): < 5.00 | pIC50 (DYRK1A [1]): < 5.00 | pIC50 (DYRK1B): < 5.00 | pIC50 (DYRK2): < 5.00 | pIC50 (DYRK3): < 5.00 | pIC50 (GSK-3): < 5.00 | melting point: 136 to 139 °C | pIC50 (CDK9/cyclin T): < 5.00 | pIC50 (CLK1 [2]): 5.24 | pIC50 (CLK2): 5.39 | pIC50 (CLK3): < 5.00 | pIC50 (CLK4): 6.04

O=C1NCc2ccc3c(-c4ccccc4)c[nH]c3c21 (as salt: sodium) [8a, 3-Phenyl-6,7-dihydropyrrolo[3,4-g]indol-8(1H)-one]
melting point: 294 to 295 °C

Cc1nc(CNc2ncnc3ccc(-c4ccc5c(c4)OCO5)cc23)cs1 [NCGC00185963]
pIC50 (CLK1 [5]): 7.02 | pIC50 (DYRK1A [6]): 6.69

O=C1NCc2ccc3c(-c4cccc([N+](=O)[O-])c4)c[nH]c3c21 [8j, 3-(3-Nitrophenyl)-6,7-dihydropyrrolo[3,4-g]indol-8(1H)-one]
pIC50 (CDK1/cyclin B): < 5.00 | pIC50 (CDK2/cyclin A): < 5.00 | pIC50 (CDK5/p25): < 5.00 | pIC50 (CK1δ/ε): < 5.00 | pIC50 (DYRK1A [1]): < 5.00 | pIC50 (DYRK1B): 5.82 | pIC50 (DYRK2): 5.31 | pIC50 (DYRK3): 5.72 | pIC50 (GSK-3): < 5.00 | melting point: 237 to 238 °C (dec.) | pIC50 (CDK9/cyclin T): < 5.00 | pIC50 (CLK1 [2]): 7.42 | pIC50 (CLK2): 6.43 | pIC50 (CLK3): 5.07 | pIC50 (CLK4): 7.21

Cn1cc(-c2ccccc2)c2ccc3c(c21)C(=O)NC3 [15a, 1-Methyl-3-phenyl-6,7-dihydropyrrolo[3,4-g]indol-8(1H)-one]
pIC50 (CDK1/cyclin B): < 5.00 | pIC50 (CDK2/cyclin A): < 5.00 | pIC50 (CDK5/p25): < 5.00 | pIC50 (CK1δ/ε): < 5.00 | pIC50 (DYRK1A [1]): < 5.00 | pIC50 (DYRK1B): < 5.00 | pIC50 (DYRK2): < 5.00 | pIC50 (DYRK3): < 5.00 | pIC50 (GSK-3): < 5.00 | melting point: 255 to 256 °C | pIC50 (CDK9/cyclin T): < 5.00 | pIC50 (CLK1 [2]): 6.72 | pIC50 (CLK2): 5.96 | pIC50 (CLK3): < 5.00 | pIC50 (CLK4): 6.80

O=C1NCc2c(Br)cc3c(-c4ccccc4)c[nH]c3c21 (as salt: sodium) [12a, 5-Bromo-3-phenyl-6,7-dihydropyrrolo[3,4-g]indol-8(1H)-one]
melting point: 226 to 227 °C

O=C1NCc2ccc3c(-c4ccccc4Cl)c[nH]c3c21 [8b, 3-(2-Chlorophenyl)-6,7-dihydropyrrolo[3,4-g]indol-8(1H)-one]
pIC50 (CDK1/cyclin B): < 5.00 | pIC50 (CDK2/cyclin A): < 5.00 | pIC50 (CDK5/p25): < 5.00 | pIC50 (CK1δ/ε): < 5.00 | pIC50 (DYRK1A [1]): 5.96 | pIC50 (GSK-3): < 5.00 | melting point: 234 to 235 °C | pIC50 (CDK9/cyclin T): < 5.00 | pIC50 (CLK1 [2]): 6.85

CN1CCN(C(=O)C(C)(C)c2ccc(C(=O)Nc3cn4cc(-c5ccncc5)ccc4n3)cc2)CC1 [T3]
pIC50 (CLK1 [7]): 9.17 | pIC50 (DYRK1A [8]): 6.59 | GI50 (HCT116): 0.13 µM

COc1ccc2sc(C(=O)N(C)Cc3cccc(F)c3)cc2c1 [compound 4]
pIC50 (CLK1 [9]): 8.15 | pIC50 (DYRK1A [10]): 6.47
